Bounds are passed on as bounds.

For one test, the target named is T1, human β3 adrenergic receptor (Homo sapiens, UniProt P13945).
T1 construct: expressed in transfected cells; host or cells: Chinese hamster ovary (CHO) cells, stably transfected
T1 sequence (P13945 whole entry): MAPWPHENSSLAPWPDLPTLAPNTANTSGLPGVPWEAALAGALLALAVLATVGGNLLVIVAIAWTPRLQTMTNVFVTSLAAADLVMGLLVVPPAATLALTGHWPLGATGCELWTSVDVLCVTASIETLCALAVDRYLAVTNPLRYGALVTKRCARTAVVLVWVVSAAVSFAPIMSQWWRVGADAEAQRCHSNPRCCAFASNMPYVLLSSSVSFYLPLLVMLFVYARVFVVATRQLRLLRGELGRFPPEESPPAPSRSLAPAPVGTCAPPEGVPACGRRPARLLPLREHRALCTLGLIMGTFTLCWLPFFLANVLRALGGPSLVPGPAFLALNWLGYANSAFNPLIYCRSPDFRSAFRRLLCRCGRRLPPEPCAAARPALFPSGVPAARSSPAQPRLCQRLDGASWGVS
Briefly: Beta-3 agonist in vitro functional assay: cAMP production (LANCE TR-FRET) in CHO cells stably transfected with the cloned β3 receptor. Conditions: Table 4; cAMP, CHO cells; read-out: Human β3 agonist functional activity. It counts as cell-based. As for the experimental part: Chinese hamster ovary (CHO) cells, stably transfected with the cloned β-adrenergic receptor (β1, β2 or β3) are harvested after 3 days of subculturing. Harvesting of cells is done with Enzyme-free Dissociation Media (Specialty Media). Cells are then counted and resuspended in assay buffer (Hank's Balanced salt solution supplemented with 5 mM HEPES, […]) containing a phosphodiesterase inhibitor (IBMX, 0.6 mM). The reaction is initiated by mixing 6,000 cells in 6 μL with 6 μL Alexa Fluor labeled cAMP antibody (LANCE™ kit) which is then added to an assay well containing 12 μL of compound (diluted in assay buffer to 2× final concentration). The reaction proceeds for 30 minutes at RT and is terminated by the addition of 24 ul detection buffer (LANCE™ kit). The assay plate is then incubated for 1 h at RT and time-resolved fluorescence measured on a Perkin Elmer Envision reader or equivalent. The unknown cAMP level is determined by comparing fluorescence levels to a cAMP standard curve.
The non-selective, full agonist β-adrenergic ligand isoproterenol is used at all three receptors to determine maximal stimulation. […] Data are analyzed using Microsoft Excel and Graphpad Prism or an internally developed data analysis software package.
With `O=C(OCc1ccccc1)N1CC2(C1)CN(C(=O)c1ccc(C[C@@H]3CC[C@H]([C@H](O)c4ccccc4)N3)cc1)C2` [Example 5], the EC50 was in the range of 100 to 999 nM.
On the same count and under the same terms, as for `C[C@@H]1CN(C(=O)c2ccc(C[C@@H]3CC[C@H]([C@H](O)c4ccccc4)N3)cc2)CC[C@@H]1n1cccn1` [Example 60], the figure is 10 to 99.9 nM.
With `O=C(c1ccc(C[C@@H]2CC[C@H]([C@H](O)c3ccccc3)N2)cc1)N1CCCC(c2nc3ccccc3[nH]2)C1` (stereo partly drawn) [Example 34], the EC50 fell in the range of 100 to 999 nM.
On to `CN(C)C1CCN(C(=O)c2ccc(C[C@@H]3CC[C@H]([C@H](O)c4ccccc4)N3)cc2)C1` (stereo partly drawn) [Example 9], for which the EC50 was 100 to 999 nM.
With `O=C(c1ccc(C[C@@H]2CC[C@H]([C@H](O)c3ccccc3)N2)cc1)N1CC2CN(Cc3ccccn3)CC2C1` (stereo partly drawn) [Example 17], the EC50 fell in the range of 100 to 999 nM.
In the case of `O=C(c1ccc(C[C@@H]2CC[C@H]([C@H](O)c3ccccc3)N2)cc1)N1CCC2(CCOC2=O)C1` (stereo partly drawn) [Example 13], the EC50 lay in the range of 10 to 99.9 nM.

Staying with this test, now noted: Table 5; cAMP, CHO cells; read-out: Human β3 agonist functional activity.
For the compound `O=C(c1ccc(C[C@@H]2CC[C@H]([C@H](O)c3cccnc3)N2)cc1)N1CCC(N2C(=O)OCc3ccccc32)CC1` [Example 71], the EC50 lay in the range of 1 to 9.9 nM.
On to `O=C(c1ccc(C[C@@H]2CC[C@H]([C@H](O)c3ccccc3)N2)cc1)N1CCC(N2C(=O)NC3CCCCC32)CC1` (stereo partly drawn) [Example 76], for which the EC50 lay in the range of 10 to 99.9 nM.
Consider `O=C(NC1CCN(C(=O)c2ccc(C[C@@H]3CC[C@H]([C@H](O)c4ccccc4)N3)cc2)CC1)OCc1ccccc1` [Example 68], for which the EC50 fell in the range of 10 to 99.9 nM.
Same read-out and setting: next, `Nc1nnc(C2CCN(C(=O)c3ccc(C[C@@H]4CC[C@H]([C@H](O)c5ccccc5)N4)cc3)CC2)o1` [Example 99]: 10 to 99.9 nM; `CS(=O)(=O)C1CCN(C(=O)c2ccc(C[C@@H]3CC[C@H]([C@H](O)c4ccccc4)N3)cc2)CC1` [Example 122]: 10 to 99.9 nM.
`O=C(c1ccc(C[C@@H]2CC[C@H]([C@H](O)c3ccccc3)N2)cc1)N1CCC(C(O)c2ccccn2)CC1` (stereo partly drawn) [Example 168]: the EC50 is 10 to 99.9 nM.

Staying with this test, now noted: Table 8; Beta-3 agonist in vitro functional assay; read-out: Human β3 agonist functional activity.
As to `O=C(c1ccc(C[C@@H]2CC[C@H]([C@H](O)c3ccccc3)N2)cc1)N1CCC2(CCCNC2=O)CC1` [Example 256], the EC50 was 100 to 999 nM.
In the case of `O=C(c1ccc(C[C@@H]2CC[C@H]([C@H](O)c3ccccc3)N2)cc1)N1CCC2(CC1)CCN(c1ccccc1)C2=O` [Example 254], the EC50 was in the range of 100 to 999 nM.
Consider `COc1ccc2c(c1)C(=O)CC1(CCN(C(=O)c3ccc(C[C@@H]4CC[C@H]([C@H](O)c5ccccc5)N4)cc3)CC1)S2` [Example 328], for which the EC50 fell in the range of 1 to 9.9 nM.
Take `O=C(c1ccc(C[C@@H]2CC[C@H]([C@H](O)c3ccccc3)N2)cc1)N1CCC(O)(Cc2ccccc2)CC1` [Example 245]: the EC50 is 10 to 99.9 nM.
Regarding `O=C1Nc2ncccc2C2(CCN(C(=O)c3ccc(C[C@@H]4CC[C@H]([C@H](O)c5ccccc5)N4)cc3)CC2)O1` [Example 330], the EC50 fell in the range of 10 to 99.9 nM.
For the compound `O=C(c1ccc(C[C@@H]2CC[C@H]([C@H](O)c3ccccc3)N2)cc1)N1CCC2(CCCO2)CC1` [Example 307], the EC50 was 10 to 99.9 nM.
Turning to `NC1CCCC12CCN(C(=O)c1ccc(C[C@@H]3CC[C@H]([C@H](O)c4ccccc4)N3)cc1)CC2` (stereo partly drawn) [Example 315], the EC50 lay in the range of 100 to 999 nM.
As to `O=C1NC(=O)C2(CCN(C(=O)c3ccc(C[C@@H]4CC[C@H]([C@H](O)c5cccnc5)N4)cc3)CC2)N1` [Example 268], the EC50 was in the range of 10 to 99.9 nM.
Still for that read-out and setting: next, `O=C1OC2(CCN(C(=O)c3ccc(C[C@@H]4CC[C@H]([C@H](O)c5ccccc5)N4)cc3)CC2)CC1Cc1ccc(F)cc1` (stereo partly drawn) [Example 276]: 1 to 9.9 nM.
As to `CN1CC(c2ccc(F)cc2)C2(CCN(C(=O)c3ccc(C[C@@H]4CC[C@H]([C@H](O)c5ccccc5)N4)cc3)CC2)C1=O` (stereo partly drawn) [Example 262], the EC50 was under 1 nM.
On to `CC1(c2nn[nH]n2)CCN(C(=O)c2ccc(C[C@@H]3CC[C@H]([C@H](O)c4ccccc4)N3)cc2)CC1` [Example 243], for which the EC50 was in the range of 100 to 999 nM.
Take `CON=C1CCCC12CCN(C(=O)c1ccc(CC3CCC(C(O)c4ccccc4)N3)cc1)CC2` (stereo not drawn) [Example 318]: the EC50 lay within 100 to 999 nM.

Still in this test, the particulars now being: Table 9; Beta-3 agonist in vitro functional assay; read-out: Human β3 agonist functional activity.
Regarding `NC(=O)CN1CCN(C(=O)c2ccc(C[C@@H]3CC[C@H]([C@H](O)c4ccccc4)N3)cc2)CC1` [Example 388], the EC50 fell in the range of 100 to 999 nM.
Consider `C[C@@H](c1ccccn1)N1CCN(C(=O)c2ccc(C[C@@H]3CC[C@H]([C@H](O)c4ccccc4)N3)cc2)CC1` [Example 431], for which the EC50 is 10 to 99.9 nM.
On to `O=C(O)CN1CCN(C(=O)c2ccc(C[C@@H]3CC[C@H]([C@H](O)c4ccccc4)N3)cc2)CC1` [Example 390], for which the EC50 fell in the range of 100 to 999 nM.
Turning to `Cc1cccnc1N1CCN(C(=O)c2ccc(C[C@@H]3CC[C@H]([C@H](O)c4ccccc4)N3)cc2)CC1` [Example 364], the EC50 fell in the range of 10 to 99.9 nM.
On the same count and under the same terms, next, `CC(c1nn[nH]n1)N1CCN(C(=O)c2ccc(C[C@@H]3CC[C@H]([C@H](O)c4ccccc4)N3)cc2)CC1` (stereo partly drawn) [Example 423]: 10 to 99.9 nM.

The same test, now with this note: Table 10; Beta-3 agonist in vitro functional assay; read-out: Human β3 agonist functional activity.
Take `CC(C(=O)N1CCC1)N1CCN(C(=O)c2ccc(C[C@@H]3CC[C@H]([C@H](O)c4ccccc4)N3)cc2)CC1` (stereo partly drawn) [Example 471]: the EC50 was 1 to 9.9 nM.
With `CC(C(=O)N1CC(F)C1)N1CCN(C(=O)c2ccc(C[C@@H]3CC[C@H]([C@H](O)c4ccccc4)N3)cc2)CC1` (stereo partly drawn) [Example 472], the EC50 fell in the range of 1 to 9.9 nM.
With `CC(C(=O)N1CCCC(C(F)(F)F)C1)N1CCN(C(=O)c2ccc(C[C@@H]3CC[C@H]([C@H](O)c4ccccc4)N3)cc2)CC1` (stereo partly drawn) [Example 487], the EC50 fell in the range of 1 to 9.9 nM.
With `CC(C(=O)NCC(=O)N1CCCC1)N1CCN(C(=O)c2ccc(C[C@@H]3CC[C@H]([C@H](O)c4ccccc4)N3)cc2)CC1` (stereo partly drawn) [Example 460], the EC50 lay in the range of 10 to 99.9 nM.
With `CC(C(=O)N1CCC(C2CC2)CC1)N1CCN(C(=O)c2ccc(C[C@@H]3CC[C@H]([C@H](O)c4ccccc4)N3)cc2)CC1` (stereo partly drawn) [Example 494], the EC50 lay within 10 to 99.9 nM.
As to `CC(C(=O)NCc1cn2ccsc2n1)N1CCN(C(=O)c2ccc(C[C@@H]3CC[C@H]([C@H](O)c4ccccc4)N3)cc2)CC1` (stereo partly drawn) [Example 467], the EC50 was 10 to 99.9 nM.
Take `CC(C(=O)NC1(c2ccccn2)CC1)N1CCN(C(=O)c2ccc(C[C@@H]3CC[C@H]([C@H](O)c4ccccc4)N3)cc2)CC1` (stereo partly drawn) [Example 470]: the EC50 was 10 to 99.9 nM.
Regarding `CC1CCN(C(=O)C(C)N2CCN(C(=O)c3ccc(C[C@@H]4CC[C@H]([C@H](O)c5ccccc5)N4)cc3)CC2)CC1` (stereo partly drawn) [Example 488], the EC50 is 100 to 999 nM.

Staying with this test, now noted: Table 11; cAMP, CHO cells; read-out: Human β3 agonist functional activity.
Consider `C[C@@H](c1ccccn1)N1CC2CC1CN2C(=O)c1ccc(C[C@@H]2CC[C@H]([C@H](O)c3ccccc3)N2)cc1` (stereo partly drawn) [Example 538], for which the EC50 lay within 100 to 999 nM.

The same test, now with this note: Table 12; human β3 functional activity given as ranges; read-out: Human β3 agonist functional activity.
As to `CC(c1cocn1)N1CCN(C(=O)c2ccc(CC3CCC(C(O)c4ccccc4)N3)cc2)CC1` (single isomer, unassigned) [Example 586], the EC50 is 10 to 99.9 nM.
In the case of `CC(c1ccn(C)n1)N1CCN(C(=O)c2ccc(CC3CCC(C(O)c4ccccc4)N3)cc2)CC1` (single isomer, unassigned) [Example 577], the EC50 fell in the range of 1 to 9.9 nM.

Staying with this test, now noted: given as a range; cAMP, CHO cells; read-out: human β3 functional activity.
Take `O=C(c1ccc(C[C@@H]2CC[C@H]([C@H](O)c3cccnc3)N2)cc1)N1CCC(n2cccn2)CC1` [Example 65, (R)-[(2R,5S)-5-(4-{[4-(1H-pyrazol-1-yl)-piperidin-1-yl]carbonyl}benzyl)pyrrolidine-2-yl](pyridin-3-yl)methanol]: the EC50 lay within 100 to 999 nM.

The test is the same for the next values; noted with them: human β3 functional activity.
`C[C@@H](c1ccccn1)N1C2CCC1C1CCC2N1C(=O)c1ccc(C[C@@H]2CC[C@H]([C@H](O)c3ccccc3)N2)cc1` [Example 526] had an EC50 of 10 to 99.9 nM.

(Values after patent publication US8354403B2, “Pyrrolidine derived beta 3 adrenergic receptor agonists” (Merck Sharp & Dohme Corp., priority 2009, dated 2013).)
